The record followed here is US11753407B2, “Compounds for treating spinal muscular atrophy” (PTC Therapeutics, Inc., priority 2012, dated 2023).

For orientation: melting point means the temperature of the solid-liquid transition.

The subject of data set [1] is Smn protein in SMA patient fibroblast cells (GM03813). Put plainly: Smn protein assay in cultured cells (SMN HTRF). It is filed as cell-based, human. To be noted: SMA patient fibroblast cells, 48 hours; for EC1.5x for Smn protein expression: 7-point concentration curve, SMN HTRF, concentration producing 1.5 times Smn protein vs DMSO vehicle control; for maximum fold (Fold) increase of Smn protein: 7-point concentration data, fold relative to vehicle control. Put shortly: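 Smn protein quantified by HTRF with anti-SMN d2/kryptate pair, 665/620 nm ratio blank-corrected, in RIPA lysates of GM03813 fibroblasts after 48 h compound exposure (7 concentrations, 3.16-fold steps, triplicates). Values: concentration producing 1.5× vehicle Smn level, and maximal fold increase.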
In general terms: TR-FRET usually uses a lanthanide donor and a delayed reading to cut background.

In data set [2] the test system is SMN2 minigene mRNA (SMN2-A minigene) in HEK293H cells. Put plainly: SMN2 minigene mRNA splicing RT-qPCR assay in cultured cells. In kind it is cell-based, human. To be noted: Homo sapiens, HEK293-H; concentration increasing full length SMN2 mRNA 1.5-fold relative to vehicle-treated cells; HEK293H cells with SMN2-A minigene, 24 hours, 7-point concentration data; read-out: EC1.5x for production of full length SMN2 mRNA. Put shortly:
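EC1.5× = concentration raising full-length SMN2 minigene mRNA 1.5-fold over vehicle, from 7-point curves in duplicate. Stably transfected HEK293H cells exposed 24 h at 37 °C; lysates assayed by multiplex RT-qPCR, minigene FL signal normalized to GAPDH via modified ΔΔCt.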
On the technique in general: In qPCR the cycle at which signal appears reflects the starting amount.

Consider `CCc1nc(C)cn2nc(-c3cc(=O)n4cc(N5CCCNCC5)ccc4n3)cc12` [Compound 760, 7-(1,4-diazepan-1-yl)-2-(4-ethyl-6-methylpyrazolo[1,5-a]pyrazin-2-yl)-4H-pyrido[1,2-a]pyrimidin-4-one], for which the melting point is 212 to 214 °C. In addition, in data set [1], the “EC1.5x for Smn protein expression” value is “**** (an EC1.5x≤0.3 μM is indicated by four stars (****))” and the “maximum fold (Fold) increase of Smn protein” value (“maximum fold (Fold) increase” below) is reported as “***** (a fold increase >1.65 is indicated by five stars (*****))”. Further, the EC (1.5-fold increase) in data set [2] was less than 0.1 µM.

`COc1ccc(-c2cc(=O)n3cc(N4C[C@H]5CN(C)C[C@H]5C4)cc(C)c3n2)cc1OC` [Compound 260, 2-(3,4-dimethoxyphenyl)-9-methyl-7-[(3aR,6aS)-5-methylhexahydropyrrolo[3,4-c]pyrrol-2(1H)-yl]-4H-pyrido[1,2-a]pyrimidin-4-one]: the melting point lay in the range of 212 to 218 °C. For the same compound, in data set [1], the “EC1.5x for Smn protein expression” value is “** (an EC1.5× between >1 μM and ≤3 μM is indicated by two stars (**))”; the “maximum fold (Fold) increase” value is “*** (a fold increase between >1.35 and ≤1.5 is indicated by three stars (***))”. In data set [2], the EC (1.5-fold increase) lay in the range of 0.1 to 0.3 µM.

The compound `CCN1CCN(c2ccc3nc(-c4cc(Cl)c5nc(C)cn5c4)cc(=O)n3c2)C[C@H]1C` [Compound 495, 2-(8-chloro-2-methylimidazo[1,2-a]pyridin-6-yl)-7-[(3R)-4-ethyl-3-methylpiperazin-1-yl]-4H-pyrido[1,2-a]pyrimidin-4-one] came in with a melting point of 239 to 245 °C. Moreover, in data set [1], the “EC1.5x for Smn protein expression” value is reported as “**** (an EC1.5x≤0.3 μM is indicated by four stars (****))” and the “maximum fold (Fold) increase” value is listed as “***** (a fold increase >1.65 is indicated by five stars (*****))”. For the same compound, in data set [2], the EC (1.5-fold increase) was less than 0.1 µM.

For the compound `Cc1cn2cc(-c3cc(=O)n4cc(C5CCN(C(C)C)CC5)ccc4n3)cc(C)c2n1` [Compound 616, 2-(2,8-dimethylimidazo[1,2-a]pyridin-6-yl)-7-[1-(propan-2-yl)piperidin-4-yl]-4H-pyrido[1,2-a]pyrimidin-4-one], the melting point lay in the range of 242 to 244 °C. In addition, in data set [1], the “EC1.5x for Smn protein expression” value was “**** (an EC1.5x≤0.3 μM is indicated by four stars (****))” and the “maximum fold (Fold) increase” value was “***** (a fold increase >1.65 is indicated by five stars (*****))”. The EC (1.5-fold increase) in data set [2] is less than 0.1 µM.

`COc1ccc(-c2cc(=O)n3cc(N4CCNCC4)ccc3n2)cc1C#N` [Compound 151, 2-methoxy-5-[4-oxo-7-(piperazin-1-yl)-4H-pyrido[1,2-a]pyrimidin-2-yl]benzonitrile] registered a melting point of 191 to 197 °C. The “maximum fold (Fold) increase” value in data set [1] is “*** (a fold increase between >1.35 and ≤1.5 is indicated by three stars (***))”. For the same compound, the EC (1.5-fold increase) in data set [2] was 0.1 to 0.3 µM.

Compound `Cc1cn2nc(-c3cc(=O)n4cc(N5CCN(C)CC5)cc(C)c4n3)cc2c(C)n1` [Compound 457, 2-(4,6-dimethylpyrazolo[1,5-a]pyrazin-2-yl)-9-methyl-7-(4-methylpiperazin-1-yl)-4H-pyrido[1,2-a]pyrimidin-4-one] came in with a melting point of 262 to 271 °C. In data set [1], the “EC1.5x for Smn protein expression” value is recorded as “**** (an EC1.5x≤0.3 μM is indicated by four stars (****))” and the “maximum fold (Fold) increase” value is reported as “***** (a fold increase >1.65 is indicated by five stars (*****))”. Also, in data set [2], the EC (1.5-fold increase) was less than 0.1 µM.

Regarding `Cc1cn2nc(-c3cc(=O)n4cc(N5C[C@@H](C)N(C)[C@@H](C)C5)cc(C)c4n3)cc2c(C)n1` [Compound 564, 2-(4,6-dimethylpyrazolo[1,5-a]pyrazin-2-yl)-9-methyl-7-[(3R,5S)-3,4,5-trimethylpiperazin-1-yl]-4H-pyrido[1,2-a]pyrimidin-4-one], the melting point lay in the range of 297 to 310 °C. Besides, the “maximum fold (Fold) increase” value in data set [1] is reported as “* (A maximum fold increase of ≤1.2 is indicated by one star (*))”. The EC (1.5-fold increase) in data set [2] was 1 to 3 µM.

`CCCc1nc(C)cn2nc(-c3cc(=O)n4cc(N5CCNCC5)ccc4n3)cc12` [Compound 723, 2-(6-methyl-4-propylpyrazolo[1,5-a]pyrazin-2-yl)-7-(piperazin-1-yl)-4H-pyrido[1,2-a]pyrimidin-4-one] had a melting point of 250 to 252 °C. Moreover, in data set [1], the “EC1.5x for Smn protein expression” value was “**** (an EC1.5x≤0.3 μM is indicated by four stars (****))” and the “maximum fold (Fold) increase” value is recorded as “***** (a fold increase >1.65 is indicated by five stars (*****))”. In data set [2], the EC (1.5-fold increase) is less than 0.1 µM.

On to `CCN(CC)C1CCN(c2ccc3nc(-c4cc5c(C)nc(C)cn5n4)cc(=O)n3c2)CC1` [Compound 451, 7-[4-(diethylamino)piperidin-1-yl]-2-(4,6-dimethylpyrazolo[1,5-a]pyrazin-2-yl)-4H-pyrido[1,2-a]pyrimidin-4-one], for which the melting point was in the range of 232 to 235 °C. Moreover, in data set [1], the “EC1.5x for Smn protein expression” value was “*** (an EC1.5× between >0.3 μM and ≤1 μM is indicated by three stars (***))”; the “maximum fold (Fold) increase” value was “***** (a fold increase >1.65 is indicated by five stars (*****))”. Also, the EC (1.5-fold increase) in data set [2] was less than 0.1 µM.

For the compound `COc1ccc(-c2cc(=O)n3cc(C4=CCNCC4)ncc3n2)cc1OC` [Cpd 402, 2-(3,4-dimethoxyphenyl)-7-(1,2,3,6-tetrahydropyridin-4-yl)-4H-pyrazino[1,2-a]pyrimidin-4-one], the melting point was in the range of 205 to 208 °C. Also, in data set [1], the “EC1.5x for Smn protein expression” value is “** (an EC1.5× between >1 μM and ≤3 μM is indicated by two stars (**))”; the “maximum fold (Fold) increase” value was “**** (a fold increase between >1.5 and ≤1.65 is indicated by four stars (****))”. Further, the EC (1.5-fold increase) in data set [2] was less than 0.1 µM.

As to `Cc1nc2ccc(-c3cc(=O)n4cc(C5=CCN(C(C)C)CC5)ccc4n3)cc2s1` [Compound 394, 2-(2-methyl-1,3-benzothiazol-6-yl)-7-[1-(propan-2-yl)-1,2,3,6-tetrahydropyridin-4-yl]-4H-pyrido[1,2-a]pyrimidin-4-one], the melting point was 168 to 170 °C. Also, the “maximum fold (Fold) increase” value in data set [1] was “** (a fold increase between >1.2 and ≤1.35 is indicated by two stars (**))”. The EC (1.5-fold increase) in data set [2] was 0.1 to 0.3 µM.

Turning to `Cc1cn2cc(-c3cc(=O)n4cc(N5CCC(N(C)C)CC5)ccc4n3)cc(F)c2n1` [Compound 297, 7-[4-(dimethylamino)piperidin-1-yl]-2-(8-fluoro-2-methylimidazo[1,2-a]pyridin-6-yl)-4H-pyrido[1,2-a]pyrimidin-4-one], the melting point fell in the range of 250 to 257 °C. For the same compound, in data set [1], the “EC1.5x for Smn protein expression” value was “**** (an EC1.5x≤0.3 μM is indicated by four stars (****))” and the “maximum fold (Fold) increase” value is reported as “***** (a fold increase >1.65 is indicated by five stars (*****))”. Also, in data set [2], the EC (1.5-fold increase) is less than 0.1 µM.

As to `CN1CC=C(c2ccc3nc(-c4ccc(N(C)C)nc4)cc(=O)n3c2)CC1` [Compound 450, 2-[6-(dimethylamino)pyridin-3-yl]-7-(1-methyl-1,2,3,6-tetrahydropyridin-4-yl)-4H-pyrido[1,2-a]pyrimidin-4-one], the melting point fell in the range of 214 to 216 °C. Moreover, the “maximum fold (Fold) increase” value in data set [1] was “** (a fold increase between >1.2 and ≤1.35 is indicated by two stars (**))”. The EC (1.5-fold increase) in data set [2] was in the range of 0.3 to 1 µM.

Regarding `CCN1C[C@@H]2CN(c3ccc4nc(-c5ccc(OC)c(F)c5)cc(=O)n4c3)C[C@@H]2C1` [Compound 311, 7-[(3aR,6aS)-5-ethylhexahydropyrrolo[3,4-c]pyrrol-2(1H)-yl]-2-(3-fluoro-4-methoxyphenyl)-4H-pyrido[1,2-a]pyrimidin-4-one], the melting point lay in the range of 157 to 167 °C. Moreover, the “maximum fold (Fold) increase” value in data set [1] is “** (a fold increase between >1.2 and ≤1.35 is indicated by two stars (**))”. Besides, the EC (1.5-fold increase) in data set [2] fell in the range of 0.1 to 0.3 µM.

The compound `Cc1cn2cc(-c3cc(=O)n4cc(N5C[C@@H](C)N[C@@H](C)C5)ccc4n3)ccc2n1` [Compound 117, 7-[(3R,5S)-3,5-dimethylpiperazin-1-yl]-2-(2-methylimidazo[1,2-a]pyridin-6-yl)-4H-pyrido[1,2-a]pyrimidin-4-one] had a melting point of 181 to 186 °C. In data set [1], the “EC1.5x for Smn protein expression” value is listed as “**** (an EC1.5x≤0.3 μM is indicated by four stars (****))”; the “maximum fold (Fold) increase” value was “**** (a fold increase between >1.5 and ≤1.65 is indicated by four stars (****))”. In addition, the EC (1.5-fold increase) in data set [2] was less than 0.1 µM.

Compound `Cc1nc2ccc(-c3cc(=O)n4cc(C5CCN(C)CC5)ccc4n3)cc2s1` [Compound 439, 2-(2-methyl-1,3-benzothiazol-6-yl)-7-(1-methylpiperidin-4-yl)-4H-pyrido[1,2-a]pyrimidin-4-one] yielded a melting point of 240 to 242 °C. Also, in data set [1], the “EC1.5x for Smn protein expression” value was “** (an EC1.5× between >1 μM and ≤3 μM is indicated by two stars (**))”; the “maximum fold (Fold) increase” value was “*** (a fold increase between >1.35 and ≤1.5 is indicated by three stars (***))”. The EC (1.5-fold increase) in data set [2] was in the range of 0.1 to 0.3 µM.
